Experimental data published in the NIST ThermoML archive (doi:10.1021/je049925a).

Conditions: Liquid; for speed of sound: Sing-around technique in a fixed-path interferometer; for vapor or sublimation pressure: Closed cell (Static) method

CC(F)F [1,1-difluoroethane]
Conditions | speed of sound [m/s]
243.15 K, 138 kPa | 920.2
243.15 K, 442 kPa | 922.3
243.15 K, 595 kPa | 923.2
243.15 K, 1302 kPa | 927.8
243.15 K, 1815 kPa | 931
243.15 K, 2160 kPa | 933.1
243.15 K, 2762 kPa | 936.9
243.15 K, 3217 kPa | 939.9
243.15 K, 3854 kPa | 943.7
243.15 K, 4428 kPa | 947.1
243.15 K, 5359 kPa | 952.7
243.15 K, 6355 kPa | 958.6
243.15 K, 7657 kPa | 966.2
243.15 K, 8846 kPa | 973.1
243.15 K, 10231 kPa | 981
243.15 K, 11681 kPa | 989
243.15 K, 13279 kPa | 997.6
243.15 K, 14943 kPa | 1005.5
243.15 K, 16723 kPa | 1015.9
243.15 K, 17442 kPa | 1019.5
243.15 K, 18731 kPa | 1026.3
243.15 K, 20194 kPa | 1033.7
243.15 K, 22819 kPa | 1046.4
243.15 K, 25117 kPa | 1058.6
243.15 K, 27154 kPa | 1068.9
243.15 K, 30242 kPa | 1084.3
263.15 K, 407 kPa | 822.3
263.15 K, 581 kPa | 823.3
263.15 K, 759 kPa | 824.6
263.15 K, 928 kPa | 825.5
263.15 K, 1550 kPa | 831.3
263.15 K, 2228 kPa | 835.9
263.15 K, 2461 kPa | 837.6
263.15 K, 3130 kPa | 842.9
263.15 K, 3429 kPa | 844.7
263.15 K, 3914 kPa | 848.6
263.15 K, 5038 kPa | 856.2
263.15 K, 5789 kPa | 861.4
263.15 K, 6568 kPa | 866.7
263.15 K, 7201 kPa | 871
263.15 K, 7967 kPa | 876.3
263.15 K, 8899 kPa | 881.9
263.15 K, 9893 kPa | 888.5
263.15 K, 11531 kPa | 898.7
263.15 K, 13616 kPa | 912
263.15 K, 15466 kPa | 922.7
263.15 K, 17421 kPa | 934.4
263.15 K, 18552 kPa | 941
263.15 K, 19791 kPa | 947.4
263.15 K, 21881 kPa | 959.5
263.15 K, 25895 kPa | 980.9
263.15 K, 27572 kPa | 989.5
263.15 K, 29409 kPa | 998.8
283.15 K, 547 kPa | 722.7
283.15 K, 750 kPa | 724.6
283.15 K, 1038 kPa | 727.4
283.15 K, 1402 kPa | 731.2
283.15 K, 1697 kPa | 733.8
283.15 K, 2322 kPa | 739.5
283.15 K, 2793 kPa | 743.7
283.15 K, 3256 kPa | 747.8
283.15 K, 3975 kPa | 754
283.15 K, 4329 kPa | 756.9
283.15 K, 5020 kPa | 762.5
283.15 K, 6373 kPa | 773.5
283.15 K, 7420 kPa | 781.9
283.15 K, 8061 kPa | 787
283.15 K, 9151 kPa | 795.4
283.15 K, 10246 kPa | 803.6
283.15 K, 11356 kPa | 811.6
283.15 K, 13100 kPa | 824
283.15 K, 14824 kPa | 835.9
283.15 K, 16147 kPa | 844.8
283.15 K, 18020 kPa | 857
283.15 K, 19869 kPa | 868.3
283.15 K, 22681 kPa | 885.6
283.15 K, 24751 kPa | 897.6
283.15 K, 27174 kPa | 911.6
283.15 K, 29569 kPa | 925.1
298.15 K, 660 kPa | 648
298.15 K, 1153 kPa | 653.4
298.15 K, 1656 kPa | 658.8
298.15 K, 2142 kPa | 663.6
298.15 K, 3104 kPa | 674.1
298.15 K, 3609 kPa | 679.2
298.15 K, 4115 kPa | 684.3
298.15 K, 5023 kPa | 692.9
298.15 K, 5998 kPa | 702.2
298.15 K, 6939 kPa | 710.9
298.15 K, 8037 kPa | 720.6
298.15 K, 9271 kPa | 731.2
298.15 K, 10321 kPa | 740.1
298.15 K, 11735 kPa | 751.5
298.15 K, 13300 kPa | 763.9
298.15 K, 14789 kPa | 775.3
298.15 K, 16388 kPa | 787.1
298.15 K, 18041 kPa | 799
298.15 K, 19521 kPa | 809.3
298.15 K, 20530 kPa | 816.2
298.15 K, 22781 kPa | 831.1
298.15 K, 24289 kPa | 840.6
298.15 K, 26870 kPa | 856.4
298.15 K, 30717 kPa | 878.8
313.15 K, 1222 kPa | 575.1
313.15 K, 1721 kPa | 581.7
313.15 K, 2288 kPa | 589.2
313.15 K, 2776 kPa | 595.3
313.15 K, 3587 kPa | 605.3
313.15 K, 4184 kPa | 612.4
313.15 K, 4942 kPa | 621
313.15 K, 6282 kPa | 635.8
313.15 K, 7106 kPa | 644.5
313.15 K, 8134 kPa | 655.1
313.15 K, 9180 kPa | 665.6
313.15 K, 9927 kPa | 672.7
313.15 K, 11390 kPa | 686.3
313.15 K, 12765 kPa | 698.6
313.15 K, 15195 kPa | 719.2
313.15 K, 16072 kPa | 726.4
313.15 K, 17264 kPa | 736
313.15 K, 19072 kPa | 749.8
313.15 K, 21055 kPa | 764.7
313.15 K, 22659 kPa | 776.2
313.15 K, 25122 kPa | 793.3
313.15 K, 27530 kPa | 808.2
313.15 K, 29895 kPa | 822.3
333.15 K, 2129 kPa | 478.7
333.15 K, 2606 kPa | 487.2
333.15 K, 3860 kPa | 507.8
333.15 K, 4725 kPa | 520.6
333.15 K, 5932 kPa | 538
333.15 K, 7142 kPa | 552.1
333.15 K, 8008 kPa | 565.1
333.15 K, 9016 kPa | 577.2
333.15 K, 10079 kPa | 589.7
333.15 K, 11228 kPa | 602.3
333.15 K, 13279 kPa | 623.8
333.15 K, 15330 kPa | 643.8
333.15 K, 17092 kPa | 660.1
333.15 K, 18393 kPa | 671.6
333.15 K, 19875 kPa | 684.3
333.15 K, 22222 kPa | 702.8
333.15 K, 24752 kPa | 723.7
333.15 K, 24836 kPa | 723.7
333.15 K, 26902 kPa | 738.8
333.15 K, 29698 kPa | 758.6

Conditions | vapor or sublimation pressure [kPa]
243.15 K | 73
263.15 K | 179
283.15 K | 372
298.15 K | 595
313.15 K | 907
333.15 K | 1499
